What is called EC50 is the midpoint of the concentration-response curve. Lower therefore signals a more potent agent.

Data on two compounds can be found in BindingDB's records for doi:10.7270/Q22V2DK6 (The Scripps Research Institute Molecular Screening Center, 2010).

The structures appear in SMILES notation.

The target of this assay is T1, Caspase-7 (Homo sapiens, UniProt P55210).
T1 sequence (P55210 whole entry): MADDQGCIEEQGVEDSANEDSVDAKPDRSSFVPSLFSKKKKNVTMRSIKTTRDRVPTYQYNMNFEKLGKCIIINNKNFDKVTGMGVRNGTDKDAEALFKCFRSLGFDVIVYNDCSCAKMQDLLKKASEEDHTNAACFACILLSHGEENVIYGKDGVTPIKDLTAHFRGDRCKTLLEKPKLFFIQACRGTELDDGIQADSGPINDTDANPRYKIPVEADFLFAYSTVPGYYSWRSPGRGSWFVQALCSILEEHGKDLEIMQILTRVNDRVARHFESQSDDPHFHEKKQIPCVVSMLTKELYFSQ
Briefly: activation of caspase-7 zymogen – biochemical, absorbance, counter-screen for procaspase-3 activator project, dose response (AID 489013). (In general: Counterscreens check selectivity or assay interference.)

In turn, `O=C(CC1=NC2(CCCC2)Cc2ccccc21)C(=O)NN=Cc1ccccc1O` [SMR000219463] gave an EC50 of more than 85.3 µM.

`O=c1c2c(-c3ccccc3)[nH]n(-c3ccccc3)c-2c(O)n1-c1ccccc1` [SMR000269383] returned an EC50 of more than 85.3 µM.
